Assays:
[1] = target: T1, WRN [UniPro: Q14191 (WRN_HUMAN), N500-C946] (Homo sapiens (Human), UniProt Q14191); assay: WRN ATPase assay (ADP-Glo); assay type: biochemical; conditions: WRN enzymatic activity assay
[2] = target: T1, WRN [UniPro: Q14191 (WRN_HUMAN), N500-C946]; assay: WRN unwinding assay (FORKF DNA, fluorescence); assay type: biochemical; conditions: Table 14

T1 sequence (Q14191 500-946): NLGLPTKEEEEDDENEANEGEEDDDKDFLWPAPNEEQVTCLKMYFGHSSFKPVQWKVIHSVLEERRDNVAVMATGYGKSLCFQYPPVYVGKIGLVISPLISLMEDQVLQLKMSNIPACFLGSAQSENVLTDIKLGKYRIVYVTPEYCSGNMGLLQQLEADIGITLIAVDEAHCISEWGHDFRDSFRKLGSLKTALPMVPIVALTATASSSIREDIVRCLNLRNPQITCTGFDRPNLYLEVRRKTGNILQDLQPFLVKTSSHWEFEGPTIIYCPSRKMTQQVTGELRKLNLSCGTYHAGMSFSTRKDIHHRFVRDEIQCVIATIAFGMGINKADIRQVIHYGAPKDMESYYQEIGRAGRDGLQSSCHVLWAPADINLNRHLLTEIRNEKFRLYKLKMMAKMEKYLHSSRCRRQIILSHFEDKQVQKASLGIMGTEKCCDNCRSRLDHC

Row | Structure (SMILES) | IC50 [1] [nM] | IC50 [2] [nM]
1 | CCc1c(N2CCN(C(=O)c3nn(C)c(=O)[nH]c3=O)CC2)c(=O)n2nc(C3=CCOCC3)nc2n1CC(=O)Nc1ccc(C(F)(F)F)cc1Cl [Example 58, N-(2-Chloro-4-(trifluoromethyl)phenyl)-2-(2-(3,6-dihydro-2H-pyran-4-yl)-5-ethyl-6-(4-(2-methyl-3,5-dioxo-2,3,4,5-tetrahydro-1,2,4-triazine-6-carbonyl)piperazin-1-yl)-7-oxo-[1,2,4]triazolo[1,5-a]pyrimidin-4(7H)-yl)acetamide] | < 100 | < 100
2 | CCc1c(N2CCN(C(=O)c3cn(C)c(=O)[nH]c3=O)CC2)c(=O)n2nc(C3=CCOCC3)nc2n1CC(=O)Nc1ccc(C(F)(F)F)cc1Cl [Example 59, N-(2-Chloro-4-(trifluoromethyl)phenyl)-2-(2-(3,6-dihydro-2H-pyran-4-yl)-5-ethyl-6-(4-(1-methyl-2,4-dioxo-1,2,3,4-tetrahydropyrimidine-5-carbonyl)piperazin-1-y1)-7-oxo-[1,2,4]triazolo[1,5-a]pyrimidin-4(7H)-yl)acetamide] | 100 to 1000 | < 100
3 | CCc1c(N2CCN(C(=O)c3cccc(C)c3O)CC2)c(=O)n2nc(C3=CCOCC3)nc2n1CC(=O)Nc1ccc(C(F)(F)F)cc1Cl [Example 60, N-(2-Chloro-4-(trifluoromethyl)phenyl)-2-(2-(3,6-dihydro-2H-pyran-4-yl)-5-ethyl-6-(4-(2-hydroxy-3-methylbenzoyl)piperazin-1-yl)-7-oxo-[1,2,4]triazolo[1,5-a]pyrimidin-4(7H)-yl)acetamide] | 100 to 1000 | 100 to 1000
4 | CCc1c(N2CCN(C(=O)c3c[nH][nH]c3=O)CC2)c(=O)n2nc(C3=CCOCC3)nc2n1CC(=O)Nc1ccc(C(F)(F)F)cc1Cl [Example 63, N-(2-Chloro-4-(trifluoromethyl)phenyl)-2-(2-(3,6-dihydro-2H-pyran-4-yl)-5-ethyl-7-oxo-6-(4-(3-oxo-2,3-dihydro-1H-pyrazole-4-carbonyl)piperazin-1-yl)-[1,2,4]triazolo[1,5-a]pyrimidin-4(7H)-yl)acetamide] | < 100 | < 100
5 | CCc1c(N2CCN(C(=O)c3cn(C)[nH]c3=O)CC2)c(=O)n2nc(C3=CCOCC3)nc2n1CC(=O)Nc1ccc(C(F)(F)F)cc1Cl [Example 64, N-(2-Chloro-4-(trifluoromethyl)phenyl)-2-(2-(3,6-dihydro-2H-pyran-4-yl)-5-ethyl-6-(4-(1-methyl-3-oxo-2,3-dihydro-1H-pyrazole-4-carbonyl)piperazin-1-yl)-7-oxo-[1,2,4]triazolo[1,5-a]pyrimidin-4(7H)-yl)acetamide] | 100 to 1000 | < 100
6 | CCc1c(N2CCN(C(=O)c3ccc[nH]c3=O)CC2)c(=O)n2nc(C3=CCOCC3)nc2n1CC(=O)Nc1ccc(C(F)(F)F)cc1Cl [Example 65, N-(2-Chloro-4-(trifluoromethyl)phenyl)-2-(2-(3,6-dihydro-2H-pyran-4-yl)-5-ethyl-7-oxo-6-(4-(2-oxo-1,2-dihydropyridine-3-carbonyl)piperazin-1-yl)-[1,2,4]triazolo[1,5-a]pyrimidin-4(7H)-yl)acetamide] | 100 to 1000 | 100 to 1000
7 | CCc1c(N2CCN(C(=O)C3CCC(=O)N3)CC2)c(=O)n2nc(C3=CCOCC3)nc2n1CC(=O)Nc1ccc(C(F)(F)F)cc1Cl (stereo not shown) [Example 66, N-(2-Chloro-4-(trifluoromethyl)phenyl)-2-(2-(3,6-dihydro-2H-pyran-4-yl)-5-ethyl-7-oxo-6-(4-(5-oxopyrrolidine-2-carbonyl)piperazin-1-yl)-[1,2,4]triazolo[1,5-a]pyrimidin-4(7H)-yl)acetamide] | > 1000 | > 1000
8 | CCc1c(N2CCN(C(=O)c3nccc4[nH]ccc34)CC2)c(=O)n2nc(C3=CCOCC3)nc2n1CC(=O)Nc1ccc(Cl)cc1C(F)(F)F [Example 67, 2-(6-(4-(1H-Pyrrolo[3,2-c]pyridine-4-carbonyl)piperazin-1-yl)-2-(3,6-dihydro-2H-pyran-4-yl)-5-ethyl-7-oxo-[1,2,4]triazolo[1,5-a]pyrimidin-4(7H)-yl)-N-(4-chloro-2-(trifluoromethyl)phenyl)acetamide] | < 100 | < 100
9 | CCc1c(N2CCN(C(=O)c3ccnc4cc[nH]c34)CC2)c(=O)n2nc(C3=CCOCC3)nc2n1CC(=O)Nc1ccc(Cl)cc1C(F)(F)F [Example 68, 2-(6-(4-(1H-Pyrrolo[3,2-b]pyridine-7-carbonyl)piperazin-1-yl)-2-(3,6-dihydro-2H-pyran-4-yl)-5-ethyl-7-oxo-[1,2,4]triazolo[1,5-a]pyrimidin-4(7H)-yl)-N-(4-chloro-2-(trifluoromethyl)phenyl)acetamide] | 100 to 1000 | 100 to 1000
10 | CCc1c(N2CCN(C(=O)c3ncnc4[nH]ccc34)CC2)c(=O)n2nc(C3=CCOCC3)nc2n1CC(=O)Nc1ccc(Cl)cc1C(F)(F)F [Example 69, 2-(6-(4-(7H-Pyrrolo[2,3-d]pyrimidine-4-carbonyl)piperazin-1-yl)-2-(3,6-dihydro-2H-pyran-4-yl)-5-ethyl-7-oxo-[1,2,4]triazolo[1,5-a]pyrimidin-4(7H)-yl)-N-(4-chloro-2-(trifluoromethyl)phenyl)acetamide] | 100 to 1000 | < 100
11 | CCc1c(N2CCN(C(=O)c3cnc(C(F)(F)F)[nH]3)CC2)c(=O)n2nc(C3=CCOCC3)nc2n1CC(=O)Nc1ccc(Cl)cc1C(F)(F)F [Example 70, N-(4-Chloro-2-(trifluoromethyl)phenyl)-2-(2-(3,6-dihydro-2H-pyran-4-yl)-5-ethyl-7-oxo-6-(4-(2-(trifluoromethyl)-1H-imidazole-5-carbonyl)piperazin-1-yl)-[1,2,4]triazolo[1,5-a]pyrimidin-4(7H)-yl)acetamide] | 100 to 1000 | 100 to 1000
12 | CCc1c(N2CCN(C(=O)c3cc4ccsc4[nH]c3=O)CC2)c(=O)n2nc(C3=CCOCC3)nc2n1CC(=O)Nc1ccc(C(F)(F)F)cc1Cl [Example 71, N-(2-Chloro-4-(trifluoromethyl)phenyl)-2-(2-(3,6-dihydro-2H-pyran-4-yl)-5-ethyl-7-oxo-6-(4-(6-oxo-6,7-dihydrothieno[2,3-b]pyridine-5-carbonyl)piperazin-1-yl)-[1,2,4]triazolo[1,5-a]pyrimidin-4(7H)-yl)acetamide] | < 100 | < 100
13 | CCc1c(N2CCN(C(=O)c3ccn4nc(C)cc4c3O)CC2)c(=O)n2nc(C3=CCOCC3)nc2n1CC(=O)Nc1ccc(C(F)(F)F)cc1Cl [Example 72, N-(2-Chloro-4-(trifluoromethyl)phenyl)-2-(2-(3,6-dihydro-2H-pyran-4-yl)-5-ethyl-6-(4-(4-hydroxy-2-methylpyrazolo[1,5-a]pyridine-5-carbonyl)piperazin-1-yl)-7-oxo-[1,2,4]triazolo[1,5-a]pyrimidin-4(7H)-yl)acetamide] | < 100 | < 100
14 | CCc1c(N2CCN(C(=O)c3n[nH]c(=O)n(C)c3=O)CC2)c(=O)n2nc(C3=CCOCC3)nc2n1CC(=O)Nc1ccc(Cl)cc1C(F)(F)F [Example 73, N-(4-Chloro-2-(trifluoromethyl)phenyl)-2-(2-(3,6-dihydro-2H-pyran-4-yl)-5-ethyl-6-(4-(4-methyl-3,5-dioxo-2,3,4,5-tetrahydro-1,2,4-triazine-6-carbonyl)piperazin-1-yl)-7-oxo-[1,2,4]triazolo[1,5-a]pyrimidin-4(7H)-yl)acetamide] | < 100 | < 100
